Assays:
Format in all cases: in vivo
rice (Oryza sativa) = experiment: Test B flooded paddy test; conditions: for Plant response rating, Flood, Rice: 250 g ai/ha, flooded paddy test, visual rating on 0 to 100 scale (0 no effect, 100 complete control) after 13 to 15 days; for Plant response rating, Rice: Flood (flooded paddy test), 13 to 15 days; for Rice plant response rating: Flood, 31 g ai/ha, scale 0 to 100 (0 no effect, 100 complete control)
From the text: (§1) Plant species in the flooded paddy test consisted of rice (Oryza sativa), umbrella sedge (Cyperus difformis), ducksalad (Heteranthera limosa) and barnyardgrass (Echinochloa crus-galli) grown to the 2-leaf stage for testing. At the time of treatment, test pots were flooded with water to 3 cm above the soil surface, treated by application of test compounds directly to the paddy water, and then maintained at that water depth for the duration of the test.
(§2) Treated plants and controls were maintained in a greenhouse for 13 to 15 days, after which time all treated plants were visually evaluated and compared to controls. Plant response ratings, summarized in Table B, are based on a scale of 0 to 100 where 0 is no effect and 100 is complete control. A dash (-) response means no test result.

[1] = tested on: umbrella sedge (Cyperus difformis); experiment: Test B flooded paddy test; conditions: for Plant response rating, Flood, Sedge, Umbrella: 250 g ai/ha, flooded paddy test, visual rating on 0 to 100 scale (0 no effect, 100 complete control) after 13 to 15 days; for Plant response rating, Sedge, Umbrella: Flood (flooded paddy test), 13 to 15 days; for Sedge, Umbrella plant response rating: Flood, 31 g ai/ha, scale 0 to 100 (0 no effect, 100 complete control)
From the text: as §1, §2

[2] = tested on: ducksalad (Heteranthera limosa); experiment: Test B flooded paddy test; conditions: for Plant response rating, Flood, Ducksalad: 250 g ai/ha, flooded paddy test, visual rating on 0 to 100 scale (0 no effect, 100 complete control) after 13 to 15 days; for Plant response rating, Ducksalad: Flood (flooded paddy test), 13 to 15 days; for Ducksalad plant response rating: Flood, 31 g ai/ha, scale 0 to 100 (0 no effect, 100 complete control)
From the text: as §1, §2

[3] = tested on: barnyardgrass (Echinochloa crus-galli); experiment: Test B flooded paddy test; conditions: for Plant response rating, Flood, Barnyardgrass: 250 g ai/ha, flooded paddy test, visual rating on 0 to 100 scale (0 no effect, 100 complete control) after 13 to 15 days; for Plant response rating, Barnyardgrass: Flood (flooded paddy test), 13 to 15 days; for Barnyardgrass plant response rating: Flood, 31 g ai/ha, scale 0 to 100 (0 no effect, 100 complete control)
From the text: as §1, §2

[4] = tested on: giant foxtail (Setaria faberii); experiment: Test A pre-/postemergence plant response
From the text: (§3) Seeds of barnyardgrass (Echinochloa crus-galli), large crabgrass (Digitaria sanguinalis), giant foxtail (Setaria faberii), morningglory (Ipomoea spp.), pigweed (Amaranthus retroflexus), velvetleaf (Abutilon theophrasti), wheat (Triticum aestivum) and corn (Zea mays) were planted into a blend of loam soil and sand and treated preemergence with a directed soil spray using test chemicals formulated in a non-phytotoxic solvent mixture which included a surfactant. At the same time these species were also treated with postemergence applications of test compounds formulated in the same manner.
(§4) Plants ranged in height from two to ten cm and were in the one- to two-leaf stage for the postemergence treatment. Treated plants and untreated controls were maintained in a greenhouse for approximately ten days, after which time all treated plants were compared to untreated controls and visually evaluated for injury. Plant response ratings, summarized in Table A, are based on a 0 to 100 scale where 0 is no effect and 100 is complete control. A dash (-) response means no test result.

[5] = tested on: pigweed (Amaranthus retroflexus); experiment: Test A pre-/postemergence plant response
From the text: as §3, §4

[6] = tested on: morningglory (Ipomoea spp.); experiment: Test A pre-/postemergence plant response
From the text: as §3, §4

[7] = tested on: large crabgrass (Digitaria sanguinalis); experiment: Test A pre-/postemergence plant response
From the text: as §3, §4

[8] = tested on: wheat (Triticum aestivum); experiment: Test A pre-/postemergence plant response
From the text: as §3, §4

corn (Zea mays) = experiment: Test A pre-/postemergence plant response
From the text: as §3, §4

[9] = tested on: barnyardgrass (Echinochloa crus-galli); experiment: Test A pre-/postemergence plant response
From the text: as §3, §4

[10] = tested on: velvetleaf (Abutilon theophrasti); experiment: Test A pre-/postemergence plant response
From the text: as §3, §4

[11] = 62 g ai/ha, scale of 0 to 100 where 0 is no effect and 100 is complete control
[12] = 125 g ai/ha, scale 0 to 100, 0 is no effect, 100 is complete control
[13] = Postemergence, 125 g ai/ha, 0 to 100 scale where 0 is no effect and 100 is complete control
[14] = Postemergence, 500 g ai/ha, 0 to 100 scale, 0 = no effect, 100 = complete control, approx. ten days
[15] = Preemergence, 125 g ai/ha, 0 to 100 scale, 0 = no effect, 100 = complete control
[16] = Preemergence, 500 g ai/ha, visual injury, 0 to 100 scale (0 no effect, 100 complete control), approx. ten days
[17] = Preemergence, 500 g ai/ha, 0 to 100 scale, 0 = no effect, 100 = complete control
[18] = Postemergence, 500 g ai/ha, visual injury, 0 to 100 scale (0 no effect, 100 complete control), approx. ten days

SMILES: Cc1ccc(Cl)cc1-n1c(-c2cccc(Br)c2)ncc(C(=O)C2=C(O)CCCC2=O)c1=O [Compound 144]
- Plant response rating, Flood, Rice (rice (Oryza sativa)): 25
- Plant response rating, Rice (rice (Oryza sativa); [11]): 20
- Plant response rating, Rice (rice (Oryza sativa); [12]): 20
- Rice plant response rating (rice (Oryza sativa)): 15
- Plant response rating, Flood, Sedge, Umbrella [1]: 100
- Plant response rating, Sedge, Umbrella [1, 11]: 65
- Plant response rating, Sedge, Umbrella [1, 12]: 95
- Sedge, Umbrella plant response rating [1]: 50
- Plant response rating, Flood, Ducksalad [2]: 100
- Plant response rating, Ducksalad [2, 11]: 60
- Plant response rating, Ducksalad [2, 12]: 75
- Ducksalad plant response rating [2]: 50
- Plant response rating, Flood, Barnyardgrass [3]: 20
- Plant response rating, Barnyardgrass [3, 11]: 0
- Plant response rating, Barnyardgrass [3, 12]: 0
- Barnyardgrass plant response rating [3]: 0
- Plant response rating, Foxtail, Giant [4, 13]: 40
- Plant response rating, Foxtail, Giant [4, 14]: 90
- Plant response rating, Foxtail, Giant [4, 15]: 0
- Plant response rating, Foxtail, Giant [4, 16]: 10
- Plant response rating, Pigweed [5, 13]: 80
- Plant response rating, Pigweed [5, 14]: 90
- Plant response rating, Pigweed [5, 15]: 0
- Plant response rating, Pigweed [5, 16]: 90
- Plant response rating, Morningglory [6, 13]: 30
- Plant response rating, Morningglory [6, 14]: 70
- Plant response rating, Morningglory [6, 15]: 0
- Plant response rating, Morningglory [6, 16]: 10
- Plant response rating, Crabgrass, Large [7, 13]: 50
- Plant response rating, Crabgrass, Large [7, 14]: 90
- Plant response rating, Crabgrass, Large [7, 15]: 10
- Plant response rating, Crabgrass, Large [7, 16]: 30
- Plant response rating, Wheat [8, 13]: 0
- Plant response rating, Wheat [8, 14]: 0
- Plant response rating, Wheat [8, 15]: 0
- Plant response rating, Wheat [8, 17]: 0
- Plant response rating, Corn (corn (Zea mays); [13]): 0
- Plant response rating, Corn (corn (Zea mays); [14]): 30
- Plant response rating, Corn (corn (Zea mays); [15]): 0
- Plant response rating, Corn (corn (Zea mays); [16]): 0
- Plant response rating, Barnyardgrass [9, 13]: 70
- Plant response rating, Barnyardgrass [9, 14]: 100
- Plant response rating, Barnyardgrass [9, 15]: 0
- Plant response rating, Barnyardgrass [9, 16]: 20
- Plant response rating, Velvetleaf [10, 13]: 100
- Plant response rating, Velvetleaf [10, 14]: 100
- Plant response rating, Velvetleaf [10, 15]: 20
- Plant response rating, Velvetleaf [10, 17]: 70

SMILES: CCn1c(Cc2ccccc2)ncc(C(=O)C2=C(O)CCCC2=O)c1=O [Compound 200]
- Plant response rating, Flood, Rice (rice (Oryza sativa)): 23
- Plant response rating, Rice (rice (Oryza sativa); [11]): 0
- Plant response rating, Rice (rice (Oryza sativa); [12]): 10
- Rice plant response rating (rice (Oryza sativa)): 0
- Plant response rating, Flood, Sedge, Umbrella [1]: 70
- Plant response rating, Sedge, Umbrella [1, 11]: 33
- Plant response rating, Sedge, Umbrella [1, 12]: 43
- Sedge, Umbrella plant response rating [1]: 30
- Plant response rating, Flood, Ducksalad [2]: 85
- Plant response rating, Ducksalad [2, 11]: 83
- Plant response rating, Ducksalad [2, 12]: 85
- Ducksalad plant response rating [2]: 38
- Plant response rating, Flood, Barnyardgrass [3]: 38
- Plant response rating, Barnyardgrass [3, 11]: 0
- Plant response rating, Barnyardgrass [3, 12]: 23
- Barnyardgrass plant response rating [3]: 0
- Plant response rating, Foxtail, Giant [4, 13]: 0
- Foxtail, Giant plant response rating [4, 18]: 10
- Plant response rating, Foxtail, Giant [4, 15]: 0
- Plant response rating, Foxtail, Giant [4, 17]: 0
- Plant response rating, Pigweed [5, 13]: 60
- Pigweed plant response rating [5, 18]: 80
- Plant response rating, Pigweed [5, 15]: 0
- Plant response rating, Pigweed [5, 17]: 20
- Plant response rating, Morningglory [6, 13]: 50
- Morningglory plant response rating [6, 18]: 60
- Plant response rating, Morningglory [6, 15]: 0
- Plant response rating, Crabgrass, Large [7, 13]: 10
- Crabgrass, Large plant response rating [7, 18]: 10
- Plant response rating, Crabgrass, Large [7, 15]: 0
- Plant response rating, Crabgrass, Large [7, 17]: 0
- Plant response rating, Wheat [8, 13]: 0
- Wheat plant response rating [8, 18]: 0
- Plant response rating, Wheat [8, 15]: 0
- Plant response rating, Wheat [8, 17]: 0
- Plant response rating, Corn (corn (Zea mays); [13]): 0
- Corn plant response rating (corn (Zea mays); [18]): 0
- Plant response rating, Corn (corn (Zea mays); [15]): 0
- Plant response rating, Corn (corn (Zea mays); [17]): 0
- Plant response rating, Barnyardgrass [9, 13]: 0
- Barnyardgrass plant response rating [9, 18]: 10
- Plant response rating, Barnyardgrass [9, 15]: 0
- Plant response rating, Barnyardgrass [9, 17]: 0
- Plant response rating, Velvetleaf [10, 13]: 100
- Velvetleaf plant response rating [10, 18]: 100
- Plant response rating, Velvetleaf [10, 15]: 0
- Plant response rating, Velvetleaf [10, 17]: 60

From patent US8952024B2, “Herbicidal pyrimidone derivatives” (E I du Pont de Nemours and Company, priority 2009, dated 2015)
